From BindingDB's records for doi:10.1016/j.ejmech.2012.01.025 (National Institute On Drug Abuse and The National Institute …, 2012)

What follows are compounds tested against Delta-type opioid receptor (Homo sapiens, UniProt P41143) (assay: Displacement of [3H]-DADLE from human delta opioid receptor expressed in CHO cells membrane after 2 hrs by liquid scintillation counting).
Chain of Delta-type opioid receptor (P41143 whole entry): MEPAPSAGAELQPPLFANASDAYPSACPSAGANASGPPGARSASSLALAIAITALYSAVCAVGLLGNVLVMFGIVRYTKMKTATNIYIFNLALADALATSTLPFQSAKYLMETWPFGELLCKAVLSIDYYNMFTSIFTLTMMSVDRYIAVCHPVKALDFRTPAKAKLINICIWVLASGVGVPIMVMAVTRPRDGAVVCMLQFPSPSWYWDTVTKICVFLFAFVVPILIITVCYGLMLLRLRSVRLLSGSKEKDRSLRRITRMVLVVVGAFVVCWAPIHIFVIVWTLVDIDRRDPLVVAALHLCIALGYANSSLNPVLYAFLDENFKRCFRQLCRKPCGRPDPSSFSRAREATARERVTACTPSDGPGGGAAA

| SMILES | Ki |
| --- | --- |
| CN1C[C@H](O)[C@]2(c3cccc(O)c3)CCC[C@H]1C2 | 7.2 µM |
| Oc1cccc([C@@]23CCC[C@@H](C2)N(CCc2ccccc2)C[C@@H]3O)c1 | 5.8 µM |
| CN1C[C@@H](O)[C@]2(c3cccc(O)c3)CCC[C@H]1C2 | > 15 µM |
| Oc1cccc([C@@]23CCC[C@@H](C2)N(CCc2ccccc2)C[C@H]3O)c1 | 1 µM |
| CN1C2CCC[C@@](c3cccc(O)c3)(C2)[C@@H]1CO | > 10 µM |
| CN1CC2(OCCO2)[C@]2(c3cccc(O)c3)CCC[C@H]1C2 | > 7.8 µM |
